Laboratory results as given in ChEMBL document CHEMBL1125990, “Synthesis of novel 1-nitrogen replaced carbocyclic thymidine analogs as potential anti aids agents” (Bioorg Med Chem Lett, 1991).
The source made the active and inactive calls. The rule behind the calls is not given here.

tested on: Human immunodeficiency virus 1; assay: Tested for activity against HIV in cell culture at concentration of 100 ug/mL; NA denotes no activity; format: functional, organism-based

Structure (SMILES) | Activity
Cc1cn(N2CC(F)C(CO)C2)c(=O)[nH]c1=O (stereo not drawn) | inactive
Cc1cn(N2CC(CO)C(N=[N+]=[N-])C2)c(=O)[nH]c1=O (stereo not drawn) | inactive
Cc1cn(N2CC(O)C(CO)C2)c(=O)[nH]c1=O (stereo not drawn) | inactive
